Experimental data taken from US10111847B2, “Compounds and methods for modulating vascular injury” (The Regents of the University of California, priority 2012, dated 2018).

Experiments:
IKKα/β subunit = assay: TNFα induced phosphorylation of IKKα/β in sv-VSMCs, western blot; type: cell-based, human; conditions: 100 nm, 30 min; TNFα 10 ng/ml 15 min
Method: Mar-1. VSMCs and ECs were lysed in buffer (20 mM Tris-Hcl, 137 mM NaCl, 10% Glycerol, 1% NP-40) with protease and phosphatase inhibitors (Halt inhibitor capsules, Pierce, Inc) by sonication on ice. The lysates were instantly snap frozen in liquid nitrogen and thawed back later for western blotting. After centrifugation (15,000 g for 20 minutes), the whole cell extract (supernatant) was collected and was heated at 100° C. in Laemlli buffer for 6 minutes. Lysates were run on Mini-Protean TGX gels
(Biorad) and transferred on PVDF membranes which were probed with appropriate primary and secondary antibodies and visualized for quantitation using q-dot nanocrystals (Life Technologies, Inc).
Cells were pretreated with 100 nm of 7S/7R-Maresin-1 for 30 min, followed by TNFα (10 ng/ml for VSMC and 1 ng/ml for EC) for 15 min. Whole cell lysates were collected and probed for pan and phospho IKK (Cell Signaling Inc.).
FIG. 18. IKK-phospho and total IKK western blotting image is representative of three independent experiments. Bar graph represents net quantitative densitometry analysis. N=3. P≤0.05, One-way ANOVA with Dunnett's post hoc test. *: P≤0.05 compared to control, unpaired t-test. †: P≤0.05 compared to TNFα, unpaired t-test. Error bars: SEM.

rabbit femoral artery = assay: Rabbit femoral artery balloon injury, neointimal hyperplasia at 28 days; type: in vivo, New Zealand White Rabbits; conditions: 10 nM local; 28 days after injury; vehicle 0.38±0.04; P=0.002
Method: All animal experiments are performed under a protocol approved by University of California San Francisco Animal Care Committee. New Zealand White Rabbits (NZWR, Western Oregon Rabbit Company, Philomath, Oreg.) weighing 3 to 5 kg and maintained on a normal chow diet are used in all experiments. Animals are anesthetized for surgical procedures with intramuscular injection of ketamine (25 mg/kg) and xylazine (5 mg/kg), and maintained with inhalation of isoflurane. The balloon injury model is made as described by Conte et al. “Efficient repopulation of denuded rabbit arteries with autologous genetically modified endothelial cells,” Circulation. 1994; 89:2161-2169. Rabbits undergo bilateral external iliac and femoral artery injury with 2F Fogarty balloon catheter (Applied Medical Resources Corp. Rancho Santa Margarita, Calif.). After balloon injury RvD2 (10 nM, Cayman chemical, Ann Arbor, Mich.) is infused to luminal area of the right femoral artery and control vehicle (normal saline with 0.1% ethanol) is infused to the left femoral artery, and then left undisturbed for 20 minutes. For evaluation of acute effects the rabbits are euthanized at 3 days after injury by intravenous overdose of sodium Nembutal. The femoral arteries are harvested and cryosection is made for immunohistochemistry, and total RNA from treated and control tissue is isolated. […]

rabbit femoral arteries = assay: Rabbit femoral artery balloon injury, acute response at 3 days; type: in vivo, New Zealand White Rabbits
Method: All animal experiments are performed under a protocol approved by University of California San Francisco Animal Care Committee. New Zealand White Rabbits (NZWR, Western Oregon Rabbit Company, Philomath, Oreg.) weighing 3 to 5 kg and maintained on a normal chow diet are used in all experiments. Animals are anesthetized for surgical procedures with intramuscular injection of ketamine (25 mg/kg) and xylazine (5 mg/kg), and maintained with inhalation of isoflurane. The balloon injury model is made as described by Conte et al. “Efficient repopulation of denuded rabbit arteries with autologous genetically modified endothelial cells,” Circulation. 1994; 89:2161-2169. Rabbits undergo bilateral external iliac and femoral artery injury with 2F Fogarty balloon catheter (Applied Medical Resources Corp. Rancho Santa Margarita, Calif.). After balloon injury RvD2 (10 nM, Cayman chemical, Ann Arbor, Mich.) is infused to luminal area of the right femoral artery and control vehicle (normal saline with 0.1% ethanol) is infused to the left femoral artery, and then left undisturbed for 20 minutes. For evaluation of acute effects the rabbits are euthanized at 3 days after injury by intravenous overdose of sodium Nembutal. The femoral arteries are harvested and cryosection is made for immunohistochemistry, and total RNA from treated and control tissue is isolated. For evaluation of subacute responses regarding intimal hyperplasia the rabbits are euthanized at 28 days after injury and the tissue is perfusion-fixed in 10% formalin and processed as described by Conte et al. Arterioscler Thromb Vasc Biol. 2005; 25:2081-2087.
All the immunofluorescent staining is completed on 6-μm-thick frozen sections fixed by ice cold acetone for 10 minutes. Goat anti-mouse IgG conjugated with Alexa Fluor 488 or 568 (1:100, respectively, Invitrogen) is selected as secondary antibody. Anti-Ki67 (1:100, NCL-L-Ki67-MM1, Novocastra Laboratories, Newcastle upon Tyne, UK) is utilized for cell proliferation detection. […] The proportion of Ki67 is calculated by absolute positive cell number divided by DAPI positive nuclei. Leukocyte infiltration index is calculated as number of nuclei in CD45 positive area divided by total number of DAPI positive nuclei.
RvD1. […] Fluorescence was detected with TRITC filter allowing the detection of the DHE emission wavelength of 590-620 nm. The fluorescence lamp gain is standardized for all images and analyses. Fluorescence quantitation is performed using ImageJ analysis software (National Institute of Health, Bethesda, Md.). For VSMC the fluorescence intensity is determined for the DHE-stained control cells (no treatment control) from each experimental group and then individual treated cells from the same group are normalized to the corresponding value. […]

[1] = tested on: Stat1, C/EBP, SMAD, SATB1, EGR; assay: Transcription factor multiplex array in TNF-α-stimulated VSMC; type: cell-based, human; conditions: 10 nM; TNF-α 10 ng/ml 18 hours
Method: Cells are plated onto 96-well plates and treated with 10 ng/ml TNF-α in the presence or absence of 10 nM RvD2 for 18 hours and then nuclear extracts are prepared. Transcription factor profiling is performed using a multiplex array according to the manufacturer's instructions (Signosis Inc., Sunnyvale, Calif.).
FIG. 11: RvD1 and RvD2 modulate activity of multiple transcription factors in TNF-α-stimulated VSMC. VSMCs were treated with TNF-α (10 ng/ml) for 18 hours and nuclear extracts were prepared. Transcription factor profiling was performed using a multiplex array.

Q: `CC/C=C\C/C=C\C[C@H](O)\C=C/C=C/C=C/[C@@H](O)C/C=C\CCC(=O)O` [7S-Maresin-1, 7S,14R-dihydroxydocosa-4Z,8E,10Z,12Z,16Z,19Z-hexaenoic acid] was tested. Which “TNFα induced phosphorylation of IKKα/β subunit in human sv-VSMCs” value (IKKα/β subunit) did it give?
A: Reduce

Q: Which neointimal area (rabbit femoral artery) does the source give for `CC/C=C\C[C@H](O)[C@H](O)/C=C/C=C/C=C\C=C\[C@@H](O)C/C=C\CCC(=O)O` [RvD2, resolvin D2] here?
A: 0.27±0.03 mm^2

Q: And the “Cell proliferation (Ki-67 staining index), % inhibition vs control” value (rabbit femoral arteries; 10 nM intraluminal 20 minutes, 3 days after injury, P<0.01)?
A: 51%

Q: What about the “leukocyte infiltration (CD45 staining), % inhibition” value (rabbit femoral arteries; 10 nM intraluminal 20 minutes, 3 days after injury, P<0.05) of the same compound?
A: 41%

Q: And the “TNF-α, MCP-1, and IL-1α expression in treated arteries vs vehicle (qPCR)” value (rabbit femoral arteries; 10 nM intraluminal, 3 days after injury)?
A: significant reductions

Q: And the “injury-induced ROS production (DHE staining), % inhibition” value (rabbit femoral arteries; rabbit arteries 3 days after balloon injury, P<0.05)?
A: 43%

Q: What about the “transcription factor activity (Stat1, C/EBP, SMAD, SATB1, EGR) vs TNF-α-stimulated controls” value [1] of the same compound?
A: significantly downregulated
